How the values were obtained:
[1] = tested on: proinflammatory cytokines IL-6, PAI-1 and MIP1α; assay: circulating proinflammatory cytokines in LPS-induced murine sepsis (ELISA); format: in vivo, mice
Experimental: FIG. 3: The TG2 inhibitor CK996 reduces the proinflammatory cytokine load in septic mice at doses as low as 1.5 mg/kg: The graphs display the absolute circulating levels of the proinflammatory cytokines IL-6, PAI-1 and MIP1α in septic male BL6 mice as a function of the dose of intraperitoneally administered CK996 or ERW1041E. In each graph, the right y-axis depicts the relative levels of the respective cytokines over their background level in our control cohort. All septic mice in this study received lipopolysaccharide (LPS, 5 mg/kg i.v., at t=0) and either a TG2 inhibitor (CK996 or ERW1041E at 50, 15, 5.0 and 1.5 mg/kg i.p., at t=0 and 60 min) in vehicle (PBS with 5% DMSO, 2% Tween-80 and 2.5% hydroxypropyl-beta-cyclodextrin) or, for the septic control cohort, vehicle alone. An additional cohort defining the baseline cytokine levels received only intravenous vehicle and intraperitoneal inhibitor vehicle, respectively. At 3 hours the mice were euthanized and plasma collected in lithium heparin tubes. The levels of the respective proinflammatory cytokines were quantified using commercial ELISA kits according to the manufacturers' instructions. […]
Having established that intraperitoneal administration of CK996 could suppress TG2 activity in septic mice, we next sought to determine whether this pharmacologic intervention had any effect on the circulating levels of the key proinflammatory cytokines in sepsis. To this end, we administered CK996 in doses of 1.5, 5.0, 15 or 50 mg/kg intraperitoneally to septic mice (5 mg/kg LPS, iv) and measured the level of the proinflammatory cytokines IL-6, PAI-1 and MIP1α in plasma that was collected at 3 hours after infusion of LPS.
We therefore co-administered recombinant human thioredoxin protein (10 mg/kg, ip) along with CK996 (50 mg/kg, ip) to septic mice (5 mg/kg, iv) and quantified the load of proinflammatory cytokines as above.

[2] = target: T1, TG1 (Homo sapiens, UniProt P22735); assay: glutamate dehydrogenase-coupled deamidation assay, substrate Cbz-Gln-Ser; format: biochemical; settings: irreversible inhibition model, full progress curves
T1 sequence (P22735 1-817): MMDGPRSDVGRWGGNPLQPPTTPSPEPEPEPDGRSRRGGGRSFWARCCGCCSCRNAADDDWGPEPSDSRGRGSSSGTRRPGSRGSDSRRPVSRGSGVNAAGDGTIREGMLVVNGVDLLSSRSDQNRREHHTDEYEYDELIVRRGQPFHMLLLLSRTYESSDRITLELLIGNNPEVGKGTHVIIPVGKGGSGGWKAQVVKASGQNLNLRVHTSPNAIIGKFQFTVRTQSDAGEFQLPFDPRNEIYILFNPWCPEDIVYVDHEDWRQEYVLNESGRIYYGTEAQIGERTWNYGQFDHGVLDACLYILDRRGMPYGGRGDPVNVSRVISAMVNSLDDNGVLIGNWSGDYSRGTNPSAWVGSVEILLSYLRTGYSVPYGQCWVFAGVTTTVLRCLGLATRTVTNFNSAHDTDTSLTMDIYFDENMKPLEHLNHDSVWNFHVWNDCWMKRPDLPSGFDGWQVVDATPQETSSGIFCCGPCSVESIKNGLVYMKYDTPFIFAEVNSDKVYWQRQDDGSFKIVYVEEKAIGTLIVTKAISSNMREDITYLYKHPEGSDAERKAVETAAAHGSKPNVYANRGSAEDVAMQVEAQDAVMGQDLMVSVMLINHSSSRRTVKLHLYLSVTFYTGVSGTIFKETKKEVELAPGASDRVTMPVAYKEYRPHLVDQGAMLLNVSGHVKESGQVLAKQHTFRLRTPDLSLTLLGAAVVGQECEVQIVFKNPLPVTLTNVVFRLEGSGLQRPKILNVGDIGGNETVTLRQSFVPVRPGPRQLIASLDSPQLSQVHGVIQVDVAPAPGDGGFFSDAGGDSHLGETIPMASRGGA

Structure (SMILES): O=C(N[C@@H]1C[C@@H](C(=O)NC[C@@H]2CC(Br)=NO2)N(C(=O)OCc2cnc3ccccc3c2)C1)c1cccnc1 [Compound 5, (2S,4R)-quinolin-3-ylmethyl 2-((((S)-3-bromo-4,5-dihydroisoxazol-5-yl)methyl)carbamoyl)-4-(nicotinamido)pyrrolidine-1-carboxylate]
- circulating levels of IL-6, PAI-1 and MIP1α ([1]; septic mice (LPS 5 mg/kg iv), all doses tested (1.5, 5.0, 15 or 50 mg/kg ip), plasma at 3 hours): dramatically reduced
- dose that reduces the proinflammatory cytokine load ([1]; septic mice, ip at t=0 and 60 min): ≤ 1.5 mg/kg
- kinh/Ki TG1 [2]: 333 M⁻¹ s⁻¹

Reference: patent US10010541B2, “Modulation of tissue transglutaminase activation in disease” (The Board of Trustees of the Leland Stanford Junior …, priority 2014, dated 2018)
